Results as given in US11427567B2, “Imidazolyl pyrimidinylamine compounds as CDK2 inhibitors” (Incyte Corporation, priority 2019, dated 2022).

Molecular target: CDK2/Cyclin E1 (Homo sapiens (Human), UniProt P24941)
Assay: CDK2/Cyclin E1 HTRF enzyme activity assay (Example A)
Assay type: biochemical
Conditions: 1 mM ATP
Experimental: Assays were conducted in white 384-well polystyrene plates in a final reaction volume of 8 μL. […] HTRF signals were read after 1 hour at room temperature on a PHERAstar FS plate reader (BMG Labtech). Data was analyzed with IDBS XLFit and GraphPad Prism 5.0 software using a three or four parameter dose response curve to determine IC50 for each compound.

IC50 [nM]	Compound
≤ 50	CNCc1ccc(-n2cnc(-c3nc(NC4CCN(S(C)(=O)=O)CC4)ncc3C(F)(F)F)c2)c(Cl)c1F [Example 268, 4-(1-(2-Chloro-3-fluoro-4-((methylamino)methyl)phenyl)-1H-imidazol-4-yl)-N-(1-(methylsulfonyl)piperidin-4-yl)-5-(trifluoromethyl)pyrimidin-2-amine]
≤ 50	CS(=O)(=O)N1CCC(Nc2ncc(C(F)(F)F)c(-c3cn(-c4cccc(CN5CCC5)c4C(F)(F)F)cn3)n2)CC1 [Example 380, 4-(1-(3-(Azetidin-1-ylmethyl)-2-(trifluoromethyl)phenyl)-1H-imidazol-4-yl)-N-(1-(methylsulfonyl)piperidin-4-yl)-5-(trifluoromethyl)pyrimi-din-2-amine]
≤ 50	CS(=O)(=O)N1CCC(Nc2ncc(Cl)c(-c3cn(-c4ccc(C#N)cc4Cl)cn3)n2)CC1 [Example 171, 3-Chloro-4-(4-(5-chloro-2-((1-(methylsulfonyl)-piperidin-4-yl)-amino)pyrimidin-4-yl)-1H-imidazol-1-yl)benzonitrile]
≤ 50	Cc1nc(C(=O)NC(C)C)ccc1-n1cnc(-c2nc(NC3CCN(S(C)(=O)=O)CC3)ncc2C(F)(F)F)c1 [Example 133, N-Isopropyl-6-methyl-5-(4-(2-((1-(methyl-sulfonyl)piperidin-4-yl)amino)-5-(trifluoromethyl)-pyrimidin-4-yl)-1H-imidazol-1-yl)picolinamide]
≤ 50	COCCNc1ccc(-n2cc(-c3nc(NC4CCN(S(C)(=O)=O)CC4)ncc3C(F)(F)F)nc2C)c(F)c1 [Example 112, 4-(1-(2-Fluoro-4-((2-methoxyethyl)-amino)phenyl)-2-methyl-1H-imidazol-4-yl)-N-(1-(methyl-sulfonyl)piperidin-4-yl)-5-(trifluoro-methyl)pyrimidin-2-amine]
≤ 50	CS(=O)(=O)N1CCC(Nc2ncc(C(F)(F)F)c(-c3cn(-c4ccnc(C#N)c4Cl)cn3)n2)CC1 [Example 307, 3-Chloro-4-(4-(2-((1-(methylsulfonyl)piperidin-4-yl)amino)-5-(trifluoromethyl)pyrimidin-4-yl)-1H-imidazol-1-yl)picolinonitrile]
≤ 50	CNC(C)c1ccc(-n2cnc(-c3nc(NC4CCN(S(C)(=O)=O)CC4)ncc3C(F)(F)F)c2)c(Cl)c1 (single isomer, unassigned) [Example 276, 4-(1-(2-Chloro-4-(1-(methylamino)ethyl)phenyl)-1H-imidazol-4-yl)-N-(1-(methylsulfonyl)piperidin-4-yl)-5-(trifluoromethyl)pyrimidin-2-amine]
≤ 50	C[C@]1(O)CCN(Cc2ccc(-n3cnc(-c4nc(N[C@@H]5CCN(S(C)(=O)=O)C[C@H]5F)ncc4C(F)(F)F)c3)c(Cl)c2)C1 [Example 410, (S)-1-(3-Chloro-4-(4-(2-(((3R,4R)-3-fluoro-1-(methylsulfonyl)piperidin-4-yl)amino)-5-(trifluoromethyl)pyrimidin-4-yl)-1H-imidazol-1-yl)benzyl)-3-methylpyrrolidin-3-ol]
≤ 50	Cc1cc(C#N)ncc1-n1cnc(-c2nc(NC3CCN(S(C)(=O)=O)CC3)ncc2C(F)(F)F)c1 [Example 168, 4-Methyl-5-(4-(2-((1-(methylsulfonyl)piperidin-4-yl)amino)-5-(trifluoromethyl)pyrimidin-4-yl)-1H-imidazol-1-yl)picolinonitrile]
≤ 50	Cn1cnc(S(=O)(=O)N2CCC(Nc3ncc(C(F)(F)F)c(-c4ncn(C)c4Cl)n3)CC2)c1 [Example 20, 4-(5-Chloro-1-methyl-1H-imidazol-4-yl)-N-(1-((1-methyl-1H-imidazol-4-yl)sulfonyl)piperidin-4-yl)-5-(trifluoromethyl)pyrimidin-2-amine]
≤ 50	C[C@H]1CN(c2ccc(-n3cnc(-c4nc(NC5CCN(S(C)(=O)=O)CC5)ncc4C(F)(F)F)c3)c(Cl)c2)CCN1 [Example 140, (S)-4-(1-(2-Chloro-4-(3-methyl-piperazin-1-yl)-phenyl)-1H-imidazol-4-yl)-N-(1-(methyl-sulfonyl)piperidin-4-yl)-5-(trifluoro-methyl)pyrimidin-2-amine]
≤ 50	CS(=O)(=O)N1CCC(Nc2ncc(C(F)(F)F)c(-c3cn(-c4cccc(F)c4Cl)cn3)n2)CC1 [Example 65, 4-(1-(2-Chloro-3-fluorophenyl)-1H-imidazol-4-yl)-N-(1-(methylsulfonyl)piperidin-4-yl)-5-(trifluoromethyl)pyrimidin-2-amine]
≤ 50	CS(=O)(=O)N1CCC(Nc2ncc(C(F)(F)F)c(-c3cn(-c4cccc(CN5CC[C@H](C#N)C5)c4C(F)(F)F)cn3)n2)CC1 [Example 471, (S)-1-(3-(4-(2-((1-(Methylsulfonyl)piperidin-4-yl)amino)-5-(trifluoromethyl)pyrimidin-4-yl)-1H-imidazol-1-yl)-2-(trifluoromethyl)benzyl)pyrrolidine-3-carbonitrile]
≤ 50	CS(=O)(=O)N1CCC(Nc2ncc(C(F)(F)F)c(-c3cn(-c4ccc5cccnc5c4Cl)cn3)n2)CC1 [Example 165, 4-(1-(8-Chloroquinolin-7-yl)-1H-imidazol-4-yl)-N-(1-(methyl-sulfonyl)piperidin-4-yl)-5-(trifluoromethyl)-pyrimidin-2-amine]
≤ 50	Cc1nc(-c2nc(NC3CCN(S(C)(=O)=O)CC3)ncc2C(F)(F)F)cn1-c1ccc(N2CCC(N(C)C)CC2)cc1F [Example 101, 4-(1-(4-(4-(Dimethylamino)piperidin-1-yl)-2-fluorophenyl)-2-methyl-1H-imidazol-4-yl)-N-(1-(methylsulfonyl)piperidin-4-yl)-5-(trifluoromethyl)pyrimidin-2-amine]
≤ 50	CNc1nccc(-n2cnc(-c3nc(NC4CCN(S(C)(=O)=O)CC4)ncc3C(F)(F)F)c2)c1Cl [Example 322, 4-(1-(3-Chloro-2-(methylamino)pyridin-4-yl)-1H-imidazol-4-yl)-N-(1-(methylsulfonyl)piperidin-4-yl)-5-(trifluoromethyl)pyrimidin-2-amine]
≤ 50	CN1CCN(CCc2ccc(-n3cnc(-c4nc(NC5CCN(S(C)(=O)=O)CC5)ncc4C(F)(F)F)c3)c(C#N)c2)CC1 [Example 457, 5-(2-(4-Methylpiperazin-1-yl)ethyl)-2-(4-(2-((1-(methylsulfonyl)piperidin-4-yl)amino)-5-(trifluoromethyl)pyrimidin-4-yl)-1H-imidazol-1-yl)benzonitrile]
≤ 50	N#Cc1cccc(-n2cnc(-c3nc(NC4CCN(S(=O)(=O)C5CC5)CC4)ncc3C(F)(F)F)c2)c1C(F)(F)F [Example 92, 3-(4-(2-((1-(Cyclopropylsulfonyl)piperidin-4-yl)amino)-5-(trifluoromethyl)pyrimidin-4-yl)-1H-imidazol-1-yl)-2-(trifluoromethyl) benzonitrile]
≤ 50	Cc1nc(-c2nc(NC3CCN(S(C)(=O)=O)CC3)ncc2C(F)(F)F)cn1-c1ccc(C2CN(C)C2)cc1F [Example 417, 4-(1-(2-Fluoro-4-(1-methylazetidin-3-yl)phenyl)-2-methyl-1H-imidazol-4-yl)-N-(1-(methylsulfonyl)piperidin-4-yl)-5-(trifluoromethyl)pyrimidin-2-amine]
≤ 50	CCS(=O)(=O)N1CCC(Nc2ncc(C(F)(F)F)c(-c3cn(-c4ccc(C)nc4C#N)cn3)n2)CC1 [Example 87, 3-(4-(2-((1-(Ethylsulfonyl)piperidin-4-yl)amino)-5-(trifluoromethyl)pyrimidin-4-yl)-1H-imidazol-1-yl)-6-methylpicolinonitrile]
≤ 50	CCS(=O)(=O)N1CCC(Nc2ncc(C(F)(F)F)c(-c3cn(-c4ccc(C#N)nc4C)cn3)n2)CC1 [Example 93, 5-(4-(2-((1-(Ethylsulfonyl)piperidin-4-yl)amino)-5-(trifluoromethyl)pyrimidin-4-yl)-1H-imidazol-1-yl)-6-methylpicolinonitrile]
≤ 50	CS(=O)(=O)N1CCC(Nc2ncc(C(F)(F)F)c(-c3cn(-c4ccc(CNC5CC5)cc4Cl)cn3)n2)CC1 [Example 190, 4-(1-(2-Chloro-4-((cyclopropylamino)-methyl)phenyl)-1H-imidazol-4-yl)-N-(1-(methylsulfonyl)-piperidin-4-yl)-5-(trifluoromethyl)-pyrimidin-2-amine]
≤ 50	CCN1CCN(Cc2cc(F)c(-n3cnc(-c4nc(NC5CCN(S(C)(=O)=O)CC5)ncc4C(F)(F)F)c3)c(F)c2)CC1 [Example 351, 4-(1-(4-((4-Ethylpiperazin-1-yl)methyl)-2,6-difluorophenyl)-1H-imidazol-4-yl)-N-(1-(methylsulfonyl)piperidin-4-yl)-5-(trifluoromethyl)pyrimidin-2-amine]
≤ 50	CCNC(C)c1cccc(-n2cnc(-c3nc(NC4CCN(S(C)(=O)=O)CC4)ncc3C(F)(F)F)c2)c1Cl (stereo not drawn) [Example 375, 4-(1-(2-Chloro-3-(1-(ethylamino)ethyl)phenyl)-1H-imidazol-4-yl)-N-(1-(methylsulfonyl)piperidin-4-yl)-5-(trifluoromethyl)pyrimidin-2-amine]
≤ 50	COc1nccc(-n2cnc(-c3nc(N[C@H]4CCN(S(C)(=O)=O)C[C@H]4F)ncc3C(F)(F)F)c2)c1C#N [Example 297, 4-(4-(2-(((3R,4S)-3-Fluoro-1-(methylsulfonyl)piperidin-4-yl)amino)-5-(trifluoromethyl)pyrimidin-4-yl)-1H-imidazol-1-yl)-2-methoxynicotinonitrile]
≤ 50	Cc1c(C#N)cccc1-n1cnc(-c2nc(N[C@H]3CCN(S(C)(=O)=O)C[C@H]3F)ncc2C(F)(F)F)c1 [Example 42, 3-(4-(2-(((3R,4S)-3-Fluoro-1-(methylsulfonyl)piperidin-4-yl)amino)-5-(trifluoromethyl)pyrimidin-4-yl)-1H-imidazol-1-yl)-2-methylbenzonitrile]
≤ 50	CNCc1cccc(-n2cnc(-c3nc(NC4CCN(S(C)(=O)=O)CC4)ncc3C(F)(F)F)c2)c1C(F)(F)F [Example 378, 4-(1-(3-((Methylamino)methyl)-2-(trifluoromethyl)phenyl)-1H-imidazol-4-yl)-N-(1-(methylsulfonyl)piperidin-4-yl)-5-(trifluoromethyl)pyrimidin-2-amine]
